A word on the EC50: it is the concentration needed to bring the measured effect to its halfway point.

The text below walks through data of patent publication US20250034170A1, “SMALL MOLECULE MODULATORS OF GLUCOCEREBROSIDASE ACTIVITY AND USES THEREOF” (Vanqua Bio, Inc., priority 2021, published 2025).

SMILES strings stand for the structures. Some results are limits rather than exact numbers.

One assay addresses T1, GCase (Homo sapiens, UniProt P04062).
T1 construct: endogenous in cells; host or cells: HeLa cells
T1 sequence (P04062 40-536): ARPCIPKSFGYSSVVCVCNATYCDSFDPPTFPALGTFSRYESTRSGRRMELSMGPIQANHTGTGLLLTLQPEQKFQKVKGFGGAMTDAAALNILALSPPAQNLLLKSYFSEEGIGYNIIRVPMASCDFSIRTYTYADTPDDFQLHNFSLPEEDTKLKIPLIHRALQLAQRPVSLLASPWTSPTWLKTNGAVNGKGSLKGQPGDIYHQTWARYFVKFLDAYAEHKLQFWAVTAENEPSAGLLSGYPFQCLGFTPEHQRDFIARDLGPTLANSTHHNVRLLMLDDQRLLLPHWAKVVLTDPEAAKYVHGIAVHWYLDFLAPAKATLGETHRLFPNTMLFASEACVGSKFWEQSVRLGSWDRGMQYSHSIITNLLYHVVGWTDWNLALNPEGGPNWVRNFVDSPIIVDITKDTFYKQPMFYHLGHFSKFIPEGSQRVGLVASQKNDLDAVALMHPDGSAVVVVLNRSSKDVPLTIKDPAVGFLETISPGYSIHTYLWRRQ
Description: activation of GCase in a live cell PFB assay in HELA cells. It is filed as cell-based. The following applies: EC50 given as range classes. The method, then:
Exemplary compounds were evaluated for activation of GCase in a live cell PFB assay in HELA cells (essentially as described in Ysselstein et al., “LRRK2 kinase activity regulates lysosomal glucocerebrosidase in neurons derived from Parkinson's disease patients” Nature Communications (2019) 10:5570). […] EC50 ranges: A: <10 μM; B: >10-50 μM; C: >50-100 μM; D: >100 μM.
The molecule `Cc1nn(C2COC2)c2nc(N3CCC4(CN(c5ccnc(C(F)(F)F)c5)C4)C3)n(C)c(=O)c12` [Cmpd 995] gave an EC50 of less than 10 µM. On the same count and under the same terms, with `Cn1c(N2CCC3(CN(c4ccc(C(F)(F)F)cn4)C3)C2)nc2c(cnn2CC(F)F)c1=O` [Cmpd 996] the figure was 10 to 50 µM. For `Cn1c(N2CCC3(CN(c4ccc(C(F)(F)F)nc4)C3)C2)nc2c(cnn2CC(F)F)c1=O` [Cmpd 997], the EC50 was less than 10 µM. On the same count and under the same terms, with `Cn1c(N2CC3(CC2=O)CN(c2ccnc(C(F)(F)F)c2)C3)nc2c(cnn2CC(F)F)c1=O` [Cmpd 998] the figure was 10 to 50 µM; with `O=C1N(c2ncc3cnn(CC(F)F)c3n2)CCC12CN(c1ccnc(C(F)(F)F)c1)C2` [Cmpd 999], 10 to 50 µM. In the case of `Cc1nn(CC(F)F)c2nc(N3CCC4(CN(c5ccnc(C(F)(F)F)c5)C4)C3=O)ncc12` [Cmpd 1000], the EC50 is less than 10 µM.

With `Cc1nn(CC(F)F)c2nc(N3CCC4(CN(c5ccnc(C(F)(F)F)c5)C4)C3=O)cnc12` [Cmpd 1001], the EC50 is less than 10 µM. `Cc1nn(C2COC2)c2nc(N3CCC4(CN(c5ccnc(C(F)(F)F)c5)C4)C3=O)cnc12` [Cmpd 1002] returned an EC50 of less than 10 µM. `O=C1N(c2cnc3cnn(C4COC4)c3n2)CCC12CN(c1ccnc(C(F)(F)F)c1)C2` [Cmpd 1003]: the EC50 lay in the range of 10 to 50 µM.

As for `O=C1N(c2ncc3cnn(C4COC4)c3n2)CCC12CN(c1ccnc(C(F)(F)F)c1)C2` [Cmpd 1004], the EC50 fell in the range of 10 to 50 µM. `O=C1CC2(CN(c3ccnc(C(F)(F)F)c3)C2)CN1c1ncc2cnn(CC(F)F)c2n1` [Cmpd 1005]: the EC50 was in the range of 10 to 50 µM. As to `Cc1nn(CC(F)F)c2nc(N3CC4(CC3=O)CN(c3ccnc(C(F)(F)F)c3)C4)ncc12` [Cmpd 1006], the EC50 lay within 10 to 50 µM. `Cc1nn(CC(F)F)c2nc(N3CC4(CC3=O)CN(c3ccnc(C(F)(F)F)c3)C4)cnc12` [Cmpd 1007]: the EC50 was less than 10 µM.

Molecule `O=C1CC2(CN(c3ccnc(C(F)(F)F)c3)C2)CN1c1ncc2cnn(C3COC3)c2n1` [Cmpd 1008] returned an EC50 of 10 to 50 µM. `Cc1nn(C2COC2)c2nc(N3CC4(CC3=O)CN(c3ccnc(C(F)(F)F)c3)C4)ncc12` [Cmpd 1009]: the EC50 was in the range of 10 to 50 µM.

In turn, `O=C1N(c2cnc3cnn(CC(F)F)c3n2)CCC12CN(c1ccc(C(F)(F)F)nc1)C2` [Cmpd 1010] displayed an EC50 of 50 to 100 µM. Same read-out and setting: with `O=C1N(c2cnc3cnn(CC(F)F)c3n2)CCC12CN(c1ccc(C(F)(F)F)cn1)C2` [Cmpd 1011] the figure was 10 to 50 µM; with `O=C1N(c2cnc3cnn(CC(F)F)c3n2)CCC12CN(c1cnc(C(F)(F)F)nc1)C2` [Cmpd 1012], 10 to 50 µM.

As for `Cn1c(N2CCC3(CCN(c4ccnc(C(F)(F)F)c4)C3)CC2)nc2c(cnn2CC(F)F)c1=O` [Cmpd 1013], the EC50 was less than 10 µM. The molecule `Cn1c(N2CCC3(CCN(c4ccnc(C(F)(F)F)n4)C3)CC2)nc2c(cnn2CC(F)F)c1=O` [Cmpd 1014] came in with an EC50 of less than 10 µM. Turning to `Cn1c(N2CCC3(CCN(c4cnc(C(F)(F)F)nc4)C3)CC2)nc2c(cnn2CC(F)F)c1=O` [Cmpd 1015], the EC50 is 10 to 50 µM.

In the case of `Cn1c(N2CCC3(CCN(c4cnc(C(F)(F)F)nc4)C3)CC2)nc2c(cnn2CC(F)(F)F)c1=O` [Cmpd 1016], the EC50 is less than 10 µM. Take `Cn1c(N2CCC3(CN(c4ccnc(C(F)(F)F)c4)C3)C2)nc2c(cnn2CC(F)(F)F)c1=O` [Cmpd 1017]: the EC50 fell in the range of 10 to 50 µM. `Cn1c(N2CCC3(CN(c4cnc(C(F)(F)F)nc4)C3)C2)nc2c(cnn2CC(F)(F)F)c1=O` [Cmpd 1018] gave an EC50 of 10 to 50 µM. Consider `CCn1c(N2CCC3(CC2)CC(=O)N(c2ccnc(C(F)(F)F)c2)C3)nc2c(cnn2CC(F)F)c1=O` [Cmpd 1019], for which the concentration giving a half-maximal response (EC50) was less than 10 µM. For the molecule `Cc1nn(CC(F)F)c2nc(N3CCC4(CC3)CC(=O)N(c3ccnc(C(F)(F)F)c3)C4)n(C)c(=O)c12` [Cmpd 1020], the EC50 is less than 10 µM. The same measure, in the same setting: with `COc1ncc(N2CCC3(CN(c4ccnc(C(F)(F)F)c4)C3)C2)nc1-c1nncs1` [Cmpd 1021] the figure was 10 to 50 µM; with `COc1ncc(N2CCC3(CN(c4cnc(C(F)(F)F)nc4)C3)C2)nc1-c1nncs1` [Cmpd 1022], greater than 100 µM; with `FC(F)(F)c1cc(N2CC3(CCN(c4cncc(-c5nnc(C(F)(F)F)s5)n4)C3)C2)ccn1` [Cmpd 1023], less than 10 µM.

In the case of `FC(F)(F)c1cc(N2CC3(CCN(c4cncc(-c5nnc(C(F)(F)F)o5)n4)C3)C2)ccn1` [Cmpd 1024], the EC50 lay within 50 to 100 µM. Molecule `FC(F)(F)c1ncc(N2CC3(CCN(c4cncc(-c5nnc(C(F)(F)F)s5)n4)C3)C2)cn1` [Cmpd 1025] came in with an EC50 of less than 10 µM.

`FC(F)(F)c1ncc(N2CC3(CCN(c4cncc(-c5nnc(C(F)(F)F)o5)n4)C3)C2)cn1` [Cmpd 1026] showed an EC50 of 50 to 100 µM. The same measure, in the same setting: with `FC(F)(F)c1cc(N2CC3(CCN(c4cncc(-c5nccs5)n4)C3)C2)ccn1` [Cmpd 1027] the figure was 10 to 50 µM; with `FC(F)(F)c1cc(N2CC3(CCN(c4cncc(-c5ncc(C(F)(F)F)s5)n4)C3)C2)ccn1` [Cmpd 1028], 10 to 50 µM; with `FC(F)(F)c1cc(N2CC3(CCN(c4cncc(-c5cncs5)n4)C3)C2)ccn1` [Cmpd 1029], less than 10 µM. As for `CC(C)c1cnc(C(F)(F)F)cc1N1CC2(CCN(c3cnc4cnn(CC(F)F)c4n3)C2)C1` [Cmpd 1030], the EC50 is less than 10 µM.

As for `CCCc1cnc(C(F)(F)F)cc1N1CC2(CCN(c3cnc4cnn(CC(F)F)c4n3)C2)C1` [Cmpd 1031], the EC50 is less than 10 µM. With `CCc1cnc(C(F)(F)F)cc1N1CC2(CCN(c3cnc4cnn(CC(F)F)c4n3)C2)C1` [Cmpd 1032], the EC50 was less than 10 µM. In the case of `FC(F)(F)CCn1ncc2ncc(N3CCC4(CN(c5ccnc(C(F)(F)F)c5)C4)C3)nc21` [Cmpd 1033], the EC50 was less than 10 µM.

The same assay, now with this note: activation of GCase, EC50 ranges.
As for `FC(F)(F)OCCn1ncc2ncc(N3CCC4(CN(c5ccnc(C(F)(F)F)c5)C4)C3)nc21` [Cmpd 1034], the EC50 is less than 10 µM.

Take `Cc1nc2cnn(CC(F)F)c2nc1N1CCC2(CN(c3ccnc(C(F)(F)F)c3)C2)C1` [Cmpd 1035]: the EC50 was less than 10 µM. The molecule `Cc1nc2cnn(CC(F)F)c2nc1N1CCC2(CN(c3cnc(C(F)(F)F)nc3)C2)C1` [Cmpd 1036] had an EC50 greater than 100 µM. In turn, `Cc1ncc(-c2nncs2)nc1N1CCC2(CN(c3ccnc(C(F)(F)F)c3)C2)C1` [Cmpd 1037] gave a 50% effective concentration (EC50) of less than 10 µM.

Consider `Cc1ncc(-c2nncs2)nc1N1CCC2(CN(c3cnc(C(F)(F)F)nc3)C2)C1` [Cmpd 1038], for which the EC50 was in the range of 10 to 50 µM. `Cc1cnc(N2CC3(CCN(c4cnc5cnn(CC(F)F)c5n4)C3)C2)cn1` [Cmpd 1039] yielded an EC50 of 10 to 50 µM. In turn, `Cc1cc(N2CC3(CCN(c4cnc5cnn(C6COC6)c5n4)C3)C2)cc(C(F)(F)F)n1` [Cmpd 1040] had an EC50 of 10 to 50 µM.

`Cc1c(N2CC3(CCN(c4cnc5cnn(C6COC6)c5n4)C3)C2)ccnc1C(F)(F)F` [Cmpd 1041] displayed an EC50 greater than 100 µM. Molecule `Cc1cnc(C(F)(F)F)cc1N1CC2(CCN(c3cnc4cnn(C5COC5)c4n3)C2)C1` [Cmpd 1042] had an EC50 greater than 100 µM. Molecule `CCn1c(-c2ccccc2)nc2ncc(N3CCC4(CN(c5ccnc(C(F)(F)F)c5)C4)C3)nc21` [Cmpd 1043] displayed an EC50 of less than 10 µM. `CCn1c(-c2cncc(F)c2)nc2ncc(N3CCC4(CN(c5ccnc(C(F)(F)F)c5)C4)C3)nc21` [Cmpd 1044] displayed an EC50 of less than 10 µM. Molecule `CCn1c(-c2cncc(F)c2)nc2nc(N3CCC4(CN(c5ccnc(C(F)(F)F)c5)C4)C3)cnc21` [Cmpd 1045] yielded an EC50 of 50 to 100 µM. In turn, `FC(F)Cn1ncc2ncc(N3CCC4(C3)CN(c3nnc(C(F)(F)F)s3)C4)nc21` [Cmpd 1046] came in with an EC50 of 10 to 50 µM.

With `Cc1sc(N2CC3(CCN(c4cnc5cnn(CC(F)F)c5n4)C3)C2)nc1C(F)(F)F` [Cmpd 1047], the EC50 is greater than 100 µM. With `CC[C@H]1N(c2cnc(C(F)(F)F)nc2)C[C@]12CCN(c1cnc3cnn(CC(F)F)c3n1)C2` [Cmpd 1048], the EC50 lay within 10 to 50 µM. `CC[C@@H]1N(c2cnc(C(F)(F)F)nc2)C[C@]12CCN(c1cnc3cnn(CC(F)F)c3n1)C2` [Cmpd 1049] came in with an EC50 of 10 to 50 µM. Molecule `CCn1c(N2CCC3(CN(c4nnc(C(F)(F)F)s4)C3)C2)nc2c(cnn2CC(F)F)c1=O` [Cmpd 1050] had an EC50 of 10 to 50 µM.

For the molecule `FC(F)Cn1ncc2cnc(N3CCC4(C3)CN(c3nnc(C(F)(F)F)s3)C4)nc21` [Cmpd 1051], the EC50 was 50 to 100 µM. Still for that read-out and setting: with `Cc1nnc(-c2cncc(N3CCC4(CN(c5ccnc(C(F)(F)F)c5)C4)C3)n2)s1` [Cmpd 1052] the figure was less than 10 µM; with `Cc1nc(N2CCC3(CCN(c4nc5c(cnn5CC(F)F)c(=O)n4C)CC3)C2)cc(C(F)(F)F)n1` [Cmpd 1053], less than 10 µM.

Regarding `Cn1c(N2CCC3(CCN(c4ccc(C(F)(F)F)nc4)C3)CC2)nc2c(cnn2CC(F)F)c1=O` [Cmpd 1054], the EC50 was less than 10 µM. Still for that read-out and setting: with `FC(F)(F)c1cc(N2CCC3(CCN(c4cnc5cnn(C6COC6)c5n4)CC3)C2)cnn1` [Cmpd 1055] the figure was less than 10 µM. Turning to `Cc1nc(C(F)(F)F)ncc1N1CCC2(CCN(c3cnc4cnn(C5COC5)c4n3)CC2)C1` [Cmpd 1056], the EC50 was in the range of 10 to 50 µM.

Molecule `Cn1c(N2CCC3(CCN(c4nccc(C(F)(F)F)n4)C3)CC2)nc2c(cnn2C2COC2)c1=O` [Cmpd 1057] gave an EC50 of 10 to 50 µM.
